Assay [1] addresses T1, farnesyl protein transferase (Homo sapiens, UniProt P49354+P49356). Briefly: FPT IC50 (H-ras), inhibition of farnesyl protein transferase, in vitro enzyme assay. The note with it: range stated for the listed compounds as a group. It is filed as biochemical. As to the method:
(§1) FPT IC50 (inhibition of farnesyl protein transferase, in vitro enzyme assay) and COS Cell IC50 (Cell-Based Assay) were determined following the assay procedures described in WO 95/10516, published April 20, 1995. GGPT IC50 (inhibition of geranylgeranyl protein transferase, in vitro enzyme assay), Cell Mat Assay, and anti-tumor activity (in vivo anti-tumor studies) could be determined by the assay procedures described in WO 95/10516. The disclosure of WO 95/10516 is incorporated herein by reference thereto.

Assay [2] concerns the target T1, farnesyl protein transferase. The assay can be described thus: FPT IC50 (K-ras), inhibition of farnesyl protein transferase, in vitro enzyme assay. Type of assay: biochemical. The note with it: range stated for the listed compounds as a group. On the procedure: as §1
The test system of the next assay is COS Cell. Briefly: COS Cell IC50 (Cell-Based Assay). The note with it: range stated for the listed compounds as a group. On the procedure:
as §1

Another assay deals with Human tumor cells. Briefly: Soft Agar Assay (anchorage-independent growth, colony outgrowth). It is filed as cell-based. To be noted: colonies after 10-16 days at 37°C, range stated for the listed compounds as a group, read-out: Soft Agar FPT IC50. As to the method: Anchorage-independent growth is a characteristic of tumorigenic cell lines. Human tumor cells are suspended in growth medium containing 0.3% agarose and an indicated concentration of a famesyl transferase inhibitor. The solution is overlayed onto growth medium solidified with 0.6% agarose containing the same concentration of farnesyl transferase inhibitor as the top layer. After the top layer is solidified, plates are incubated for 10-16 days at 37°C under 5% CO2 to allow colony outgrowth. After incubation, the colonies are stained by overlaying the agar with a solution of MTT (3-[4,5-dimethyl-thiazol-2-yl]-2,5-diphenyltetrazolium bromide, Thiazolyl blue) (1 mg/mL in PBS). Colonies can be counted and the IC50's can be determined.

By IC50 is commonly meant the concentration that inhibits the measured activity by half. For `O=C(CC1CCN(CC(=O)N2CCNCC2)CC1)N1CCC([C@H]2c3ncc(Br)cc3CCc3cc(Cl)cc(Br)c32)CC1` [Compound 9.0], the IC50 is 1.8 to 28 nM in assay [1], 8.6 to 51.9 nM in assay [2], 6 to 840 nM in the assay with COS Cell and at least 60 nM in the assay on Human tumor cells.
Take `NC(=O)CN1CCC(CC(=O)N2CCC([C@H]3c4ncc(Br)cc4CCc4cc(Cl)cc(Br)c43)CC2)CC1` [Compound 2.0]: the concentration for half-maximal inhibition (IC50) in assay [1] was 1.8 to 28 nM; in assay [2] it was 8.6 to 51.9 nM; in the assay on COS Cell, 6 to 840 nM; in the assay with Human tumor cells, at least 60 nM.
For the molecule `O=C(CN1CCC(CC(=O)N2CCC([C@H]3c4ncc(Br)cc4CCc4cc(Cl)cc(Br)c43)CC2)CC1)N[C@@H]1O[C@H](CO)[C@H](O)[C@H](O)[C@H]1O` [Compound 6.0], the half-inhibitory concentration (IC50) in assay [1] is 1.8 to 28 nM; in assay [2], 8.6 to 51.9 nM; in the assay with COS Cell, 6 to 840 nM; in the assay on Human tumor cells, at least 60 nM.
With `CC(C)(C)OC(=O)N1CCN(C(=O)CN2CCC(CC(=O)N3CCC([C@H]4c5ncc(Br)cc5CCc5cc(Cl)cc(Br)c54)CC3)CC2)CC1` [Compound 8.0], the IC50 in assay [1] was 1.8 to 28 nM; in assay [2], 8.6 to 51.9 nM; with COS Cell it was 6 to 840 nM; with Human tumor cells, at least 60 nM.
`CC(C)(C)OC(=O)CN1CCC(CC(=O)N2CCC([C@H]3c4ncc(Br)cc4CCc4cc(Cl)cc(Br)c43)CC2)CC1` [Compound 11.0] had an IC50 in assay [1] of 1.8 to 28 nM.
Consider `CON(C)C(=O)CN1CCC(CC(=O)N2CCC([C@H]3c4ncc(Br)cc4CCc4cc(Cl)cc(Br)c43)CC2)CC1` [Compound 3.0], for which the IC50 in assay [1] is 1.8 to 28 nM; in assay [2], 8.6 to 51.9 nM; with COS Cell it was 6 to 840 nM; with Human tumor cells, at least 60 nM.
Regarding `CCN(CC)C(=O)CN1CCC(CC(=O)N2CCC([C@H]3c4ncc(Br)cc4CCc4cc(Cl)cc(Br)c43)CC2)CC1` [Compound 4.0], the half-inhibitory concentration (IC50) in assay [1] is 1.8 to 28 nM; in assay [2], 8.6 to 51.9 nM; in the assay with COS Cell, 6 to 840 nM; with Human tumor cells, at least 60 nM.
As for `O=C(CN1CCC(CC(=O)N2CCC([C@H]3c4ncc(Br)cc4CCc4cc(Cl)cc(Br)c43)CC2)CC1)NCc1ccccc1` [Compound 5.0], the values for the IC50 (in assay [1]; in assay [2]; in the assay on COS Cell) were 1.8 to 28 nM, 8.6 to 51.9 nM and 6 to 840 nM, respectively.
As to `O=C(CC1CCN(CC(O)CO)CC1)N1CCC([C@H]2c3ncc(Br)cc3CCc3cc(Cl)cc(Br)c32)CC1` (stereo partly shown) [Compound 20.0], the results for the half-inhibitory concentration (IC50) (in assay [1]; in the assay on COS Cell; in the assay with Human tumor cells) were 1.8 to 28 nM, 6 to 840 nM and at least 60 nM, respectively.
With `O=C(CC1CCN(CC(=O)N2CCOCC2)CC1)N1CCC([C@H]2c3ncc(Br)cc3CCc3cc(Cl)cc(Br)c32)CC1` [Compound 7.0], the 50% inhibitory concentration (IC50) in assay [1] is 1.8 to 28 nM; in assay [2], 8.6 to 51.9 nM; with COS Cell it was 6 to 840 nM; in the assay with Human tumor cells, at least 60 nM.
For `O=C(CC1CCN(CC(=O)N2CCc3ccccc32)CC1)N1CCC([C@H]2c3ncc(Br)cc3CCc3cc(Cl)cc(Br)c32)CC1` [Compound 10.0], the IC50 in assay [1] lay within 1.8 to 28 nM; with COS Cell, 6 to 840 nM.
